# Source: patent US10995099B2, “Compounds and their uses as ACC inhibitors” (NANJING RUIJIE PHARMATECH CO., LTD., priority 2017, dated 2021)
# Target: ACC1 (Homo sapiens (Human), UniProt Q13085)
# Experiment: In vitro ACC inhibition assay (ADP-Glo), ACC1
# Assay type: biochemical
# Settings: not given
# Experimental: (§1) Compounds of the present invention were evaluated in an in vitro ACC inhibition assay as described by Harwood, et al, 2003, the entirety of which is incorporated herein by reference.
# (§2) In Vitro Acetyl-CoA Carboxylase (ACC) Inhibition Assay
# (§3) An exemplary procedure for the in vitro ACC inhibition assay, which can be used to determine the inhibitory action of compounds of the invention toward either ACC1 or ACC2, follows. The ADP-Glo™ Kinase Assay kit from Promega was used. The ADP-Glo™ Kinase Assay is a luminescent ADP detection assay to measure enzymatic activity by quantifying the amount of ADP produced during an enzyme reaction. The assay is performed in two steps; first, after the enzyme reaction, an equal volume of ADP-Glo™ Reagent is added to terminate the reaction and deplete the remaining ATP. Second, the Kinase Detection Reagent is added to simultaneously convert ADP to ATP and allow the newly synthesized ATP to be measured using a luciferase/luciferin reaction. Luminescence can be correlated to ADP concentrations by using an ATP-to-ADP conversion curve. The detailed procedure is as follows. 50 μL of the compound being tested (600 uM in DMSO) was added to a 384-well dilution plate. The compound was diluted 1:3 in succession in DMSO for each row for 11 wells. 0.5 μL ACC2 working solution was added to 384-well white Optiplate assay plate. 0.5 μL diluted compound solution in each column from step 2 to assay plate, each row containing 2 replicates. […] The plates were incubated at room temperature for 15 minutes. 5 μL substrate working solution was added to each well to initiate reaction. Final ACC2 reaction concentrations consist of: 5 nM ACC2, 20 μM ATP, 20 μM acetyl-CoA, 12 mM NaHCO3, 0.01% Brij35, 2 mM DTT, 5% DMSO, test compound concentrations: 30 μM, 10 μM, 3.33 μM, 1.11 μM, 0.37 μM, 0.123 μM, 0.0411 μM, 0.0137 μM, 0.00457 μM, 0.00152 μM, and 0.00051 μM. Plates were incubated at room temperature for 60 minutes. 10 μL ADP glo reagent was added. Plates were incubated at room temperature for 40 minutes. 20 μL kinase detection reagent was added. Plates were incubated at room temperature for 40 minutes, then read on a Perkin Elmer EnVision 2104 plate reader for luminescence as Relative Light Units (RLU).
# (§4) Data for each concentration, as well as the positive and negative controls were averaged, and the standard deviation calculated. Percent inhibition was calculated by the formula: 100×(average negative control-compound)/(average negative control-average positive control). The IC50 for each compound was calculated by fitting the data with a non-linear regress ion equation: Y=Bottom+(Top−Bottom)/(1+10((Log IC50−X* HillSlope)), where X is the log of compound concentration and Y is percent inhibition.
row,SMILES,IC50 [µM]
1,COc1ccccc1[C@H](Cn1c(=O)n(C2(C(=O)O)CC2)c(=O)c2c(C)c(Br)sc21)OC1CCOCC1 [Example 29],0.001 to 0.01
2,COc1ccccc1[C@H](Cn1c(=O)n(C2(C(=O)O)CCC2)c(=O)c2c(C)c(Br)sc21)OC1CCOCC1 [Example 31],0.001 to 0.01
3,COc1ccccc1C(Cn1c(=O)n(C2(C(=O)O)CCCC2)c(=O)c2c(C)c(-c3ncco3)sc21)OC1CCOCC1 (stereo not drawn) [Example 36],0.001 to 0.01

# Further lines, results first:
row,IC50 [µM],SMILES
1,< 0.001,COc1ccccc1[C@H](Cn1c(=O)n(C2(C(=O)O)CC2)c(=O)c2c(C)c(-c3ncco3)sc21)OC1CCOCC1 [Example 33]
2,< 0.001,COc1ccccc1C(Cn1c(=O)n(C2(C(=O)O)CCC2)c(=O)c2c(C)c(-c3ncco3)sc21)OC1CCOCC1 (stereo not drawn) [Example 37]
3,< 0.001,COc1ccccc1[C@H](Cn1c(=O)n(C(C)(C)C(=O)O)c(=O)c2c(C)c(-c3ncco3)sc21)OC1CCOCC1 [Example 38]

# Target: ACC2 (Homo sapiens (Human), UniProt O00763)
# Sequence (O00763 whole entry, species assumed): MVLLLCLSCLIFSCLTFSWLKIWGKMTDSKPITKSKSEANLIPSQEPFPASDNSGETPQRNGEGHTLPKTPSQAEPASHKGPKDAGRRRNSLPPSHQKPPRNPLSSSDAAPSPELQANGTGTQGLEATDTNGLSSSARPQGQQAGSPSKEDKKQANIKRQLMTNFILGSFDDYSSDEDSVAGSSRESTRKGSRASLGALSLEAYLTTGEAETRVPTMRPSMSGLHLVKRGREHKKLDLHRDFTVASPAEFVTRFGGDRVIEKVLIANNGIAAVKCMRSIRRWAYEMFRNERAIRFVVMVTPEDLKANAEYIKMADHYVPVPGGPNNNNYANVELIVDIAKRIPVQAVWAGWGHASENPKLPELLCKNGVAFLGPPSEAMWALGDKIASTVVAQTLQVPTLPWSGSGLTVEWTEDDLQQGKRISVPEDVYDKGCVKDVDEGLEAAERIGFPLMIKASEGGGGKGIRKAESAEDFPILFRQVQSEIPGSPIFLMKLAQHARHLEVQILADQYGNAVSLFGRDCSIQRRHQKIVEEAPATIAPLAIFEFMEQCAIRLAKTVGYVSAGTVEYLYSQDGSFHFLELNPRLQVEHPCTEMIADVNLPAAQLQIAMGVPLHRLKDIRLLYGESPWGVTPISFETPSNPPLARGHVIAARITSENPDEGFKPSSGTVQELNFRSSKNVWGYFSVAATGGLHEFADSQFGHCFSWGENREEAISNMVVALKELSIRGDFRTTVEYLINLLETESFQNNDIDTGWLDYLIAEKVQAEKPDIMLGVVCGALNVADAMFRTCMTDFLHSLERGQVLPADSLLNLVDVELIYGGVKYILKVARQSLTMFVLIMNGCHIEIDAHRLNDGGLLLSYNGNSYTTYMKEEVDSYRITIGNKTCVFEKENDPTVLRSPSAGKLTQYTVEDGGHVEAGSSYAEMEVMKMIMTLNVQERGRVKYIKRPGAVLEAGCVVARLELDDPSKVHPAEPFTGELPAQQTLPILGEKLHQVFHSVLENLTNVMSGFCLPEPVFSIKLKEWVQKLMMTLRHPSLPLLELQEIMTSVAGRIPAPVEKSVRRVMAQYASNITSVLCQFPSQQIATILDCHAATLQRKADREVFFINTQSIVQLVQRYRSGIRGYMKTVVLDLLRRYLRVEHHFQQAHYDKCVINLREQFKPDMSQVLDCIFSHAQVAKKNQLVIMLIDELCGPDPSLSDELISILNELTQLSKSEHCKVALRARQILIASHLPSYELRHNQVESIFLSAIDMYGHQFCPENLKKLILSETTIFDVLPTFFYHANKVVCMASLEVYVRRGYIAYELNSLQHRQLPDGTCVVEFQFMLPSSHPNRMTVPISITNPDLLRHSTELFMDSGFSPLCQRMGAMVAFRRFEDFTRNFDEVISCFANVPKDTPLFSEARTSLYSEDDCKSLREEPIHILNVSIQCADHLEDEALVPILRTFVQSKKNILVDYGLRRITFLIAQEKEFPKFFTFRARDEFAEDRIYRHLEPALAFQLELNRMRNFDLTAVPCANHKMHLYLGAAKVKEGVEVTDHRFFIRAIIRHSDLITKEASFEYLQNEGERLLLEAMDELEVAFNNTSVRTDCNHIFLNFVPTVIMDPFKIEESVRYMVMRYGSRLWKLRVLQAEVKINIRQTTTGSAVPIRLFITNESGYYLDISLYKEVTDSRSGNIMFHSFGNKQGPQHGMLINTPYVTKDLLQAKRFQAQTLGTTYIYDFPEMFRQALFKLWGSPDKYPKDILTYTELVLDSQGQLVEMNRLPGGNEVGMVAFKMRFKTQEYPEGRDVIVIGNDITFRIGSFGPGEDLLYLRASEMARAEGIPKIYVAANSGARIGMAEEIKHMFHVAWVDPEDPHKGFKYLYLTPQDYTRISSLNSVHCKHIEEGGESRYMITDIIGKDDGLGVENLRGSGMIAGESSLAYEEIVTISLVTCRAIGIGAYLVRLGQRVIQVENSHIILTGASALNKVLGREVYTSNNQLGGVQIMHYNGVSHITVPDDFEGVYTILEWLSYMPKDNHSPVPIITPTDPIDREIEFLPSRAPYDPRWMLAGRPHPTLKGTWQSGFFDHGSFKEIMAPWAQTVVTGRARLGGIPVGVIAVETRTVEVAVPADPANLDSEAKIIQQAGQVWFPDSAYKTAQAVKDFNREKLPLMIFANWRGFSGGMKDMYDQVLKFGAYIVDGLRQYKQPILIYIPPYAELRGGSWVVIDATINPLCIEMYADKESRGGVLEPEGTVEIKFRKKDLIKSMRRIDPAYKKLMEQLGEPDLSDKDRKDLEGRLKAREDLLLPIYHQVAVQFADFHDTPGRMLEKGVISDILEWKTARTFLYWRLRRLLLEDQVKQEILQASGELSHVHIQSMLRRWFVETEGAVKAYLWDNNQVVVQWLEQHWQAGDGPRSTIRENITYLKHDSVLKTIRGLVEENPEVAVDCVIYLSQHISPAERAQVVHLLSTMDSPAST
# Experiment: In vitro ACC inhibition assay (ADP-Glo), ACC2
# Assay type: biochemical
# Settings: 5 nM ACC2, 20 μM ATP, 20 μM acetyl-CoA; read-out: IC50 (μM) ACC2
# Experimental: as §1, §2, §3, §4
row,SMILES,IC50 [µM]
1,COc1ccccc1[C@H](Cn1c(=O)n(C2(C(=O)O)CC2)c(=O)c2c(C)c(Br)sc21)OC1CCOCC1 [Example 29],< 0.01
2,COc1ccccc1[C@H](Cn1c(=O)n(C2(C(=O)O)CCC2)c(=O)c2c(C)c(Br)sc21)OC1CCOCC1 [Example 31],< 0.01
3,COc1ccccc1C(Cn1c(=O)n(C2(C(=O)O)CCCC2)c(=O)c2c(C)c(-c3ncco3)sc21)OC1CCOCC1 (stereo not drawn) [Example 36],< 0.01

# Now from value to compound:
row,IC50 [µM],SMILES
1,< 0.01,COc1ccccc1[C@H](Cn1c(=O)n(C2(C(=O)O)CC2)c(=O)c2c(C)c(-c3ncco3)sc21)OC1CCOCC1 [Example 33]
2,< 0.01,COc1ccccc1C(Cn1c(=O)n(C2(C(=O)O)CCC2)c(=O)c2c(C)c(-c3ncco3)sc21)OC1CCOCC1 (stereo not drawn) [Example 37]
3,< 0.01,COc1ccccc1[C@H](Cn1c(=O)n(C(C)(C)C(=O)O)c(=O)c2c(C)c(-c3ncco3)sc21)OC1CCOCC1 [Example 38]

# Same assay, conditions: ND630 versus RJ compounds; isoform not given; read-out: IC50 (μM) ND630/RJ-cmps(%)
row,SMILES,IC50 [µM]
1,COc1ccccc1[C@H](Cn1c(=O)n(C2(C(=O)O)CC2)c(=O)c2c(C)c(Br)sc21)OC1CCOCC1 [Example 29],0.003 to 0.005
2,COc1ccccc1[C@H](Cn1c(=O)n(C2(C(=O)O)CCC2)c(=O)c2c(C)c(Br)sc21)OC1CCOCC1 [Example 31],0.003 to 0.005
3,COc1ccccc1C(Cn1c(=O)n(C2(C(=O)O)CCCC2)c(=O)c2c(C)c(-c3ncco3)sc21)OC1CCOCC1 (stereo not drawn) [Example 36],0.003 to 0.005

# Now from value to compound:
row,IC50 [µM],SMILES
1,0.003 to 0.005,COc1ccccc1[C@H](Cn1c(=O)n(C2(C(=O)O)CC2)c(=O)c2c(C)c(-c3ncco3)sc21)OC1CCOCC1 [Example 33]
2,0.005 to 0.01,COc1ccccc1C(Cn1c(=O)n(C2(C(=O)O)CCC2)c(=O)c2c(C)c(-c3ncco3)sc21)OC1CCOCC1 (stereo not drawn) [Example 37]
3,0.005 to 0.01,COc1ccccc1[C@H](Cn1c(=O)n(C(C)(C)C(=O)O)c(=O)c2c(C)c(-c3ncco3)sc21)OC1CCOCC1 [Example 38]

# System: HepG2
# Experiment: EC50 in HepG2
# Assay type: cell-based
# Settings: HepG2; read-out: EC50 (μM) HepG2
row,SMILES,EC50 [µM]
1,COc1ccccc1[C@H](Cn1c(=O)n(C2(C(=O)O)CC2)c(=O)c2c(C)c(Br)sc21)OC1CCOCC1 [Example 29],0.01 to 0.1
2,COc1ccccc1[C@H](Cn1c(=O)n(C2(C(=O)O)CCC2)c(=O)c2c(C)c(Br)sc21)OC1CCOCC1 [Example 31],0.01 to 0.1
3,COc1ccccc1C(Cn1c(=O)n(C2(C(=O)O)CCCC2)c(=O)c2c(C)c(-c3ncco3)sc21)OC1CCOCC1 (stereo not drawn) [Example 36],0.01 to 0.1

# The remaining lines, values ahead:
row,EC50 [µM],SMILES
1,0.01 to 0.1,COc1ccccc1[C@H](Cn1c(=O)n(C2(C(=O)O)CC2)c(=O)c2c(C)c(-c3ncco3)sc21)OC1CCOCC1 [Example 33]
2,0.01 to 0.1,COc1ccccc1C(Cn1c(=O)n(C2(C(=O)O)CCC2)c(=O)c2c(C)c(-c3ncco3)sc21)OC1CCOCC1 (stereo not drawn) [Example 37]
3,0.01 to 0.1,COc1ccccc1[C@H](Cn1c(=O)n(C(C)(C)C(=O)O)c(=O)c2c(C)c(-c3ncco3)sc21)OC1CCOCC1 [Example 38]

# Same assay, conditions: ND630 versus RJ compounds; read-out: EC50 (μM) ND630/RJ-cmps(%)
row,SMILES,EC50 [µM]
1,COc1ccccc1[C@H](Cn1c(=O)n(C2(C(=O)O)CC2)c(=O)c2c(C)c(Br)sc21)OC1CCOCC1 [Example 29],0.1 to 1
2,COc1ccccc1[C@H](Cn1c(=O)n(C2(C(=O)O)CCC2)c(=O)c2c(C)c(Br)sc21)OC1CCOCC1 [Example 31],> 1
3,COc1ccccc1C(Cn1c(=O)n(C2(C(=O)O)CCCC2)c(=O)c2c(C)c(-c3ncco3)sc21)OC1CCOCC1 (stereo not drawn) [Example 36],> 1

# The next lines start with the values.
row,EC50 [µM],SMILES
1,> 1,COc1ccccc1[C@H](Cn1c(=O)n(C2(C(=O)O)CC2)c(=O)c2c(C)c(-c3ncco3)sc21)OC1CCOCC1 [Example 33]
2,> 1,COc1ccccc1C(Cn1c(=O)n(C2(C(=O)O)CCC2)c(=O)c2c(C)c(-c3ncco3)sc21)OC1CCOCC1 (stereo not drawn) [Example 37]
3,> 1,COc1ccccc1[C@H](Cn1c(=O)n(C(C)(C)C(=O)O)c(=O)c2c(C)c(-c3ncco3)sc21)OC1CCOCC1 [Example 38]

# System: MDA-MB-468
# Experiment: EC50 in MDA-MB-468
# Assay type: cell-based
# Settings: MDA-MB-468; read-out: EC50 (μM) MDA-MB-468
row,SMILES,EC50 [µM]
1,COc1ccccc1[C@H](Cn1c(=O)n(C2(C(=O)O)CC2)c(=O)c2c(C)c(Br)sc21)OC1CCOCC1 [Example 29],> 10
2,COc1ccccc1[C@H](Cn1c(=O)n(C2(C(=O)O)CCC2)c(=O)c2c(C)c(Br)sc21)OC1CCOCC1 [Example 31],> 10
3,COc1ccccc1C(Cn1c(=O)n(C2(C(=O)O)CCCC2)c(=O)c2c(C)c(-c3ncco3)sc21)OC1CCOCC1 (stereo not drawn) [Example 36],> 10

# Continued, values first:
row,EC50 [µM],SMILES
1,1 to 10,COc1ccccc1[C@H](Cn1c(=O)n(C2(C(=O)O)CC2)c(=O)c2c(C)c(-c3ncco3)sc21)OC1CCOCC1 [Example 33]
2,> 10,COc1ccccc1C(Cn1c(=O)n(C2(C(=O)O)CCC2)c(=O)c2c(C)c(-c3ncco3)sc21)OC1CCOCC1 (stereo not drawn) [Example 37]
3,> 10,COc1ccccc1[C@H](Cn1c(=O)n(C(C)(C)C(=O)O)c(=O)c2c(C)c(-c3ncco3)sc21)OC1CCOCC1 [Example 38]

# System: A549
# Experiment: EC50 in A549
# Assay type: cell-based
# Settings: A549; read-out: EC50 (μM) A549
row,SMILES,EC50 [µM]
1,COc1ccccc1[C@H](Cn1c(=O)n(C2(C(=O)O)CC2)c(=O)c2c(C)c(Br)sc21)OC1CCOCC1 [Example 29],0.5 to 1
2,COc1ccccc1[C@H](Cn1c(=O)n(C2(C(=O)O)CCC2)c(=O)c2c(C)c(Br)sc21)OC1CCOCC1 [Example 31],< 0.5
3,COc1ccccc1C(Cn1c(=O)n(C2(C(=O)O)CCCC2)c(=O)c2c(C)c(-c3ncco3)sc21)OC1CCOCC1 (stereo not drawn) [Example 36],0.5 to 1

# The remaining lines, values ahead:
row,EC50 [µM],SMILES
1,< 0.5,COc1ccccc1[C@H](Cn1c(=O)n(C2(C(=O)O)CC2)c(=O)c2c(C)c(-c3ncco3)sc21)OC1CCOCC1 [Example 33]
2,< 0.5,COc1ccccc1C(Cn1c(=O)n(C2(C(=O)O)CCC2)c(=O)c2c(C)c(-c3ncco3)sc21)OC1CCOCC1 (stereo not drawn) [Example 37]
3,< 0.5,COc1ccccc1[C@H](Cn1c(=O)n(C(C)(C)C(=O)O)c(=O)c2c(C)c(-c3ncco3)sc21)OC1CCOCC1 [Example 38]
